Holding throughout (experiment): biochemical
Common to all, as to set-up: KINOMEscan competition binding panel (Eurofins DiscoverX), single concentration, percent inhibition
What all share (conditions): read-out: 15 at 1 µM % inhibition

One experiment concerns the target STK16 (Homo sapiens, UniProt O75716). Put shortly: (§1)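 Selectivity profile from a KINOMEscan run against >400 human kinases; test concentration 1 µM.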
The target in the next experiment is T1, ICK (Homo sapiens, UniProt Q9UPZ9).
T1 construct: gene CILK1
T1 sequence (Q9UPZ9 whole entry): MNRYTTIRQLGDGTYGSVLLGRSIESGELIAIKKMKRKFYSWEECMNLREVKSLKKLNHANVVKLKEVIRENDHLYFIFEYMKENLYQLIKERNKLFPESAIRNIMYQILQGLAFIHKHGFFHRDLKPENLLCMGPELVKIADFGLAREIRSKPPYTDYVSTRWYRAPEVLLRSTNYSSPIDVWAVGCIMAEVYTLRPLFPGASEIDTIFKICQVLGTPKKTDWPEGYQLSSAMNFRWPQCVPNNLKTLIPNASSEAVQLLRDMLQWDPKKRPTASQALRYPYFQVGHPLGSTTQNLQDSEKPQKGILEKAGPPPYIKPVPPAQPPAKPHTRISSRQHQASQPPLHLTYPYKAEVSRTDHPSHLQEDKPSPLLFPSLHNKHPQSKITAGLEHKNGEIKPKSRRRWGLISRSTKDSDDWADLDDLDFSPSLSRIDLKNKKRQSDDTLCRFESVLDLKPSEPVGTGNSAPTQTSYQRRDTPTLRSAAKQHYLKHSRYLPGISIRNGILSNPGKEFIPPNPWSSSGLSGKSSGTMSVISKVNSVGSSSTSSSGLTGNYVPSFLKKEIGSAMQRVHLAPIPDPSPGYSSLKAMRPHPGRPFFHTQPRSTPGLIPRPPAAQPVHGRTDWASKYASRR
Put shortly:
as §1

A further experiment has as its target T2, ERK4 (Homo sapiens, UniProt P31152).
T2 construct: gene MAPK4
Put shortly: as §1

A further experiment has as its target PIP5K1C (Homo sapiens, UniProt O60331). Put shortly: as §1
The target of experiment [1] is T3, ABL1(Y253F)-phosphorylated (Homo sapiens, UniProt P00519, Y253F).
T3 construct: phosphorylated
Put shortly: as §1

For another experiment, the target named is HIPK1 (Homo sapiens, UniProt Q86Z02). Put shortly: as §1
Another experiment concerns the target TAOK3 (Homo sapiens, UniProt Q9H2K8). Put shortly:
as §1

In the next experiment the target is AKT1 (Homo sapiens, UniProt P31749). Put shortly: as §1
In the next experiment the target is MET(Y1235D) (Homo sapiens, UniProt P08581, Y1235D). Put shortly: as §1
The next experiment deals with MTOR (Homo sapiens, UniProt P42345). Put shortly:
as §1

The target of a further experiment is HIPK3 (Homo sapiens, UniProt Q9H422). Put shortly:
as §1

The target in a further experiment is MAP3K1 (Homo sapiens, UniProt Q13233). Put shortly: as §1
For another experiment, the target named is T4, PIP5K2B (Homo sapiens, UniProt P78356).
T4 construct: gene PIP4K2B
T4 sequence (P78356 whole entry): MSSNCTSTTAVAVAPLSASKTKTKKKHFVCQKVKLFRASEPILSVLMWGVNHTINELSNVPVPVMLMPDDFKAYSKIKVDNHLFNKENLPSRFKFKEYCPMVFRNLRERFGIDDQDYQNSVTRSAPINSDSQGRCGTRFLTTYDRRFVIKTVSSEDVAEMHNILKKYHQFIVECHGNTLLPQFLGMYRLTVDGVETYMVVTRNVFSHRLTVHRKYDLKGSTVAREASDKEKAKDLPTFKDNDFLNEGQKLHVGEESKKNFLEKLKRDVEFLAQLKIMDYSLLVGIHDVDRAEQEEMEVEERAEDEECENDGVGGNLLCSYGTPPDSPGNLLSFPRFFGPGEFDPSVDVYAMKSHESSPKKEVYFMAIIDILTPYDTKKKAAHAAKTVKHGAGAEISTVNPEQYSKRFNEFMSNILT
Put shortly:
as §1

The target in a further experiment is NEK6 (Homo sapiens, UniProt Q9HC98). Put shortly: as §1
The target in a further experiment is PRKCE (Homo sapiens, UniProt Q02156). Put shortly: as §1
PRKCE, sequence (Q02156 whole entry): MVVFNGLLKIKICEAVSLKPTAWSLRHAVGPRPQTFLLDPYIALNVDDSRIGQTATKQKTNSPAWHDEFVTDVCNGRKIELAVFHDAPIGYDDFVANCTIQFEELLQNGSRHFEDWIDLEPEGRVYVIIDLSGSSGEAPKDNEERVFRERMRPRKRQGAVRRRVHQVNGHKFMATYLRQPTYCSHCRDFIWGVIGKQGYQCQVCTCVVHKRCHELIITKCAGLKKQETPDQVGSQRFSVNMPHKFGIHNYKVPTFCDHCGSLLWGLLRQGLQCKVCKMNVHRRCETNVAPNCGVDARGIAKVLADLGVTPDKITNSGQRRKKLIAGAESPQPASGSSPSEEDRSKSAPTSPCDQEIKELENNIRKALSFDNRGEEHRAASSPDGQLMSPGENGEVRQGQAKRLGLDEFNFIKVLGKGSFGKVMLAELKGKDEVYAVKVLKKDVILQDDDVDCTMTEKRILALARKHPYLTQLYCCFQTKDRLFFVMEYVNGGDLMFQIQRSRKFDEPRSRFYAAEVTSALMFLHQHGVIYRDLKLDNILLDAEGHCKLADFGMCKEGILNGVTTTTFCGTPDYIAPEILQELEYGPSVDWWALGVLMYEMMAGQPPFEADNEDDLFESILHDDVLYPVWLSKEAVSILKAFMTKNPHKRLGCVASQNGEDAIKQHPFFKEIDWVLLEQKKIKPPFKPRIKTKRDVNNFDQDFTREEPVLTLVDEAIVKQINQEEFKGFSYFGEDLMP
The target in a further experiment is MARK2 (Homo sapiens, UniProt Q7KZI7). Put shortly: as §1
The target in the next experiment is TESK1 (Homo sapiens, UniProt Q15569). Put shortly: as §1
The target of the next experiment is T5, NDR1 (Homo sapiens, UniProt Q15208).
T5 construct: gene STK38
Put shortly:
as §1

A further experiment deals with VRK2 (Homo sapiens, UniProt Q86Y07). Put shortly: as §1
Experiment [2] addresses T6, RSK2(Kin.Dom.1-N-terminal) (Homo sapiens, UniProt P51812).
T6 construct: gene RPS6KA3; Kin.Dom.1-N-terminal
Put shortly: as §1

The target in the next experiment is T7, p38-gamma (Homo sapiens, UniProt P53778).
T7 construct: gene MAPK12
Put shortly: as §1

The target of a further experiment is PIM2 (Homo sapiens, UniProt Q9P1W9). Put shortly:
as §1

The target in a further experiment is TIE1 (Homo sapiens, UniProt P35590). Put shortly:
as §1

A further experiment deals with T8, PFTK1 (Homo sapiens, UniProt O94921).
T8 construct: gene CDK14
Put shortly: as §1

The values below come from paper PMC7180948, “New Insights into 4-Anilinoquinazolines as Inhibitors of Cardiac Troponin I–Interacting Kinase (TNNi3K)” (Molecules, 2020).

TAOK3, sequence (Q9H2K8 whole entry): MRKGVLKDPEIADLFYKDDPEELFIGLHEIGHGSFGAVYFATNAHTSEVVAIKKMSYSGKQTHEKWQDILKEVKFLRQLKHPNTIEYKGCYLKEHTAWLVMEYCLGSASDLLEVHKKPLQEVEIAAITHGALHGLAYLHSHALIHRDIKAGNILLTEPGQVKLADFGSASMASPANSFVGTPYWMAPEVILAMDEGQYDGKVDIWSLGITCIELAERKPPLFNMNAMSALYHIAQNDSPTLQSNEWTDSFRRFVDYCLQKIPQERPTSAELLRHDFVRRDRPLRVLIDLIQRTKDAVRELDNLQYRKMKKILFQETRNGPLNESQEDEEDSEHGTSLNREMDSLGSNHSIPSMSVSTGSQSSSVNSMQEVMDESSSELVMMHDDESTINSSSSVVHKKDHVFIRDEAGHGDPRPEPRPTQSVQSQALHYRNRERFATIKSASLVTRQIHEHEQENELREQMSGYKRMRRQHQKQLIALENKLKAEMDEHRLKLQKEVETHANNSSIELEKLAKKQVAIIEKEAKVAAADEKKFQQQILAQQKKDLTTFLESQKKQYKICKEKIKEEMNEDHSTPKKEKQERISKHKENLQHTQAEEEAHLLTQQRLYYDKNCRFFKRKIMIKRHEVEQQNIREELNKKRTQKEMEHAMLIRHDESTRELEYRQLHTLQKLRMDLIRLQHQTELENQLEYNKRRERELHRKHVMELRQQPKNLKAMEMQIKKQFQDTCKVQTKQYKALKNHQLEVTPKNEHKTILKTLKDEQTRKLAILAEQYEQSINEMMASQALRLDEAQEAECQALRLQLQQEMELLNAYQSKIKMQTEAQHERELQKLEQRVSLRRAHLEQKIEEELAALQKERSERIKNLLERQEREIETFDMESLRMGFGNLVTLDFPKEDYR
PIP5K1C, sequence (O60331 whole entry): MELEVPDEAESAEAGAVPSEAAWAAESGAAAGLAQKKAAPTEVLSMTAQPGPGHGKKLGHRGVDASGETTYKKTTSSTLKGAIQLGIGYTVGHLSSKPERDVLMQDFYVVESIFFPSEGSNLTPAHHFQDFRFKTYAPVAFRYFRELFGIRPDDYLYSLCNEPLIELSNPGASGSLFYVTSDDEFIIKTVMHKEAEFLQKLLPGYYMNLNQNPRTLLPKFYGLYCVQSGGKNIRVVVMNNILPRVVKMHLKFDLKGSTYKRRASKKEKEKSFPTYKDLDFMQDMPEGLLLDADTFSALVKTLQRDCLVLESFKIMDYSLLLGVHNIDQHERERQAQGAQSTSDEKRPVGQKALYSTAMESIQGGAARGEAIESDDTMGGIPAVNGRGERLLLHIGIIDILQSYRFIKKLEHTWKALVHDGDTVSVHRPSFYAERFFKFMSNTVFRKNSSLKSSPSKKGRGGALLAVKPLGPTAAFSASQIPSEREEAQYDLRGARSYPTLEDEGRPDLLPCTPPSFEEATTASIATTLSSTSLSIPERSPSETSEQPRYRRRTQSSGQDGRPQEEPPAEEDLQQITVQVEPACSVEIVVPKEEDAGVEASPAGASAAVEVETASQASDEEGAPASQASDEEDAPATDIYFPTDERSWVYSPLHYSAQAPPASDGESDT
T2 sequence (P31152 whole entry): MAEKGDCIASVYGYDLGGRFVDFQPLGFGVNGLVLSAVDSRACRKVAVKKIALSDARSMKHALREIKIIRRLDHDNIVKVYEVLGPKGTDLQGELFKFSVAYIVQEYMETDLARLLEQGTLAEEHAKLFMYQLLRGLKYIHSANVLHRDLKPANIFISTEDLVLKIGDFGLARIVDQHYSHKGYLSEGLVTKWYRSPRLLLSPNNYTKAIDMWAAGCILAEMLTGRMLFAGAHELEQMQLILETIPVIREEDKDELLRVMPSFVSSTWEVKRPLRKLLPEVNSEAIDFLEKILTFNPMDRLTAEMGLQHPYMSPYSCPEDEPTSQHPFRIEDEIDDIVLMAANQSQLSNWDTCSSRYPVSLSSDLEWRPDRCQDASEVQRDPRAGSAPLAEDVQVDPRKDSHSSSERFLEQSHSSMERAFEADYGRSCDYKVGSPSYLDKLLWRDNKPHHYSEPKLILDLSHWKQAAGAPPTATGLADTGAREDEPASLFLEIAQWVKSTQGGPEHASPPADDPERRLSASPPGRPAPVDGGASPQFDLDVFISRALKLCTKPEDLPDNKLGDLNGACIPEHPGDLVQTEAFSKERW
TIE1, sequence (P35590 whole entry): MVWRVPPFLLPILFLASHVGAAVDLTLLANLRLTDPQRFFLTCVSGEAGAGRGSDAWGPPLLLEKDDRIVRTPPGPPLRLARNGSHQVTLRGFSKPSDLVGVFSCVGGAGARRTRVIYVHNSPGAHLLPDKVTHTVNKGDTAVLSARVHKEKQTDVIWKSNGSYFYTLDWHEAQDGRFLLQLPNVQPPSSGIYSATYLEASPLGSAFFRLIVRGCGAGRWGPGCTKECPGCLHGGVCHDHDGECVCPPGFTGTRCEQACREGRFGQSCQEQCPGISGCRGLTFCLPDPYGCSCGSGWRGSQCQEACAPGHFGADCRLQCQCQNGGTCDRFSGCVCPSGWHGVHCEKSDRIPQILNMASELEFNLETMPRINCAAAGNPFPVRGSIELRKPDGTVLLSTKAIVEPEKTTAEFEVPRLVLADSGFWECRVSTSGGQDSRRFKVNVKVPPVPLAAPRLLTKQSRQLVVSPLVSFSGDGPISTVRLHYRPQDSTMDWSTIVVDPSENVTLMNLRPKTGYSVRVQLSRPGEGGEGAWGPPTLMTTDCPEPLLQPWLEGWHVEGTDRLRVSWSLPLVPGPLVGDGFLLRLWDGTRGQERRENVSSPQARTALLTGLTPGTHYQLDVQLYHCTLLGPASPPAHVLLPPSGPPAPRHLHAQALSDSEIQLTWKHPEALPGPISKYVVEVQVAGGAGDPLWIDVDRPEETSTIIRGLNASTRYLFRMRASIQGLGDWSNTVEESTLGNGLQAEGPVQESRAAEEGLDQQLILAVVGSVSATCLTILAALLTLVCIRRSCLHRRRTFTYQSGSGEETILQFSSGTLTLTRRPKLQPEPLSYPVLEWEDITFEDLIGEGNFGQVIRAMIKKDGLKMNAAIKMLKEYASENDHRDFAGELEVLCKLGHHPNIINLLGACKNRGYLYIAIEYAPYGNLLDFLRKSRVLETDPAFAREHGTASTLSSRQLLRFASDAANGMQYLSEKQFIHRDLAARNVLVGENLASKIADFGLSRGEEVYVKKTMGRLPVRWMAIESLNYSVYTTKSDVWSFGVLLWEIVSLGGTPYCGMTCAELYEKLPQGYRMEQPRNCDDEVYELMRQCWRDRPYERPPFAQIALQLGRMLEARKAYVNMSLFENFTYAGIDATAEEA

By inhibition is commonly meant the relative decrease from the control value, in per cent. As for `CNS(=O)(=O)c1ccc(N(C)C)c(Nc2nc(C)nc3cc(OC)c(OC)cc23)c1` [compound 15, 3-((6,7-dimethoxy-2-methylquinazolin-4-yl)amino)-4-(dimethylamino)-N-methylbenzenesulfonamide], the inhibition at 1 µM was determined as 2% at STK16; 12% on ICK; 0% on ERK4; 18% at PIP5K1C; 18% in experiment [1]; 7% on HIPK1. Also, the inhibition at 1 µM at TAOK3 was 16%; on AKT1 it was 0%; on MET(Y1235D), 0%; on MTOR it was 0%; at HIPK3, 28%; on MAP3K1 it was 27%. Besides, the inhibition at 1 µM on PIP5K2B turned out to be 0%; at NEK6, 0%; at PRKCE it was 11%; on MARK2, 0%; on TESK1, 1%; on NDR1, 13%. For the same molecule, the inhibition at 1 µM on VRK2 was 12%; in experiment [2] it was 15%; at p38-gamma, 17%; on PIM2 it was 0%; on TIE1 it was 11%; at PFTK1, 0%.
